Tests used:
tau protein = conditions: cited from earlier work
[1] = test system: hyperphosphorylated tau-expressing mice; conditions: administered to hyperphosphorylated tau-expressing mice; cited from earlier work
[2] = Stability of isolated [11C]isoproterenol solution, radiochemical purity by HPLC; type: physicochemical
Experimental: Radiochemical purity and chemical purity of [2-^11C] isoproterenol in the solution after HPLC fractionation were analyzed by HPLC (CH3CN/acetic acid-ammonium acetate (pH 5.3), 10:90; column, CAPCELL PAK SCX UG 80, 4.6 (id)×150 mm; flow rate, 1 mL/min; UV detection, 278 nm; retention time, 6.5 min). [^11C] isoproterenol was confirmed by co-injection of unlabeled isoproterenol in HPLC. In the absence of addition of tartaric acid, the radiochemical purity immediately after isolation was 96%, whereas the radiochemical purity after 60 minutes dropped to 84% (see FIG. 3). […] This is presumed to be due to inhibition of deprotonation of two adjacent phenolic hydroxyl groups present in the catechol nucleus under acidic conditions and suppression of subsequent oxidative decomposition by oxygen molecules or superoxide. Also, the chemical purity measured at the above wavelength was >93%

Compound: CC(C)NCC(O)c1ccc(O)c(O)c1 [D/L-isoproterenol]
- inhibition of aggregation of tau protein (tau protein): particularly strongly suppresses aggregation of tau protein
- abnormal behavior [1]: improvement of abnormal behavior
- aggregation of tau protein [1]: suppression of aggregation of tau protein
- nerve cell dropout [1]: suppression of nerve cell dropout

Compound: CC(C)NCC(O)c1ccc(O)c(O)c1 (stereo not drawn) [[^11C] isoproterenol, [2-^11C] isoproterenol]
- radiochemical purity after 60 minutes ([2]; solution after HPLC fractionation, absence of addition of tartaric acid, 60 minutes after isolation): 84%
- radiochemical purity immediately after isolation ([2]; solution after HPLC fractionation, absence of addition of tartaric acid, immediately after isolation): 96%
- drop in radiochemical purity after 60 minutes ([2]; tartaric acid added, 60 minutes after isolation): no drop in radiochemical purity was observed

Compound: CNCC(O)c1ccc(O)c(O)c1 (stereo not drawn) [adrenaline]
- inhibition of aggregation of tau protein (tau protein): inhibited aggregation of tau protein

Compound: NCCc1ccc(O)c(O)c1 [dopamine]
- inhibition of aggregation of tau protein (tau protein): inhibited aggregation of tau protein
